# Like-named read-outs stand apart in the source and are kept apart here.
# Experiments:
# [1] = Cytotoxicity against mammalian cells (MTT); type: cell-based, Murine; settings: mouse, NCTC clone L929 cells
# Method: Rhesus monkey kidney cells (LLC-MK2-ATCC CCL 7) were used for the maintenance of trypomastigotes of T. cruzi (Y strain) using RPMI-1640 medium supplemented with 2% fetal bovine serum (FBS). The cells and parasites were kept at 37 °C in a humidified atmosphere containing 5% CO2. Peritoneal macrophages, used in the experiments of anti-amastigote assay, were obtained by washing the peritoneal cavity of BALB/c mice, with RPMI-1640 medium supplemented with 10% FBS and kept at 37 °C in a 5% CO2 humidified incubator. Murine conjunctive cells (NCTC clone 929, ATCC) and LLC-MK2 were kept in RPMI-1640 supplemented with 10% FBS at the same conditions described above.
# NCTC cells-clone L929 (6 × 10^4 cells/well) were seeded and incubated with tested compounds (200–1.56 µM) for 48 h at 37 °C in a 5% CO2 humidified incubator. Cytotoxic concentration (CC50) was determined by MTT assay. Optical density was determined in FilterMax F5 (Molecular Devices) at 570 nm. Selectivity Index (SI) was determined using the following ratio: CC50 against NCTC cells/IC50 against parasites.
# (§1) IC50 and CC50 values were calculated using a sigmoid dose-response curves in Graph–Pad Prism 5.0 software (GraphPad Software - San Diego, CA, USA). For the mechanism of action studies one-way ANOVA (Turkey’s Multiple Comparison test) was used for significance (p < 0.05). The assays were repeated at least twice and the samples were tested in duplicate.
# [2] = test system: T. cruzi intracellular amastigotes; assay: Anti-amastigote assay in infected peritoneal macrophages (infection index); type: cell-based, Trypanosoma cruzi; settings: 48 h, read-out: IC50 Ama
# Method: (§2) The cells and parasites were kept at 37 °C in a humidified atmosphere containing 5% CO2.
# The cells were plated on a 16-well chamber slide – NUNC (Thermo Fisher Scientific) at 1 × 10^5 cells/well and incubated for 24 h at 37 °C in a 5% CO2 humidified incubator. […] Tested compounds were subsequently incubated with infected macrophages for 48 h at 37 °C (5% CO2 humidified incubator) in different nontoxic concentrations. Benznidazole was used as standard drug. At the end of the assay, slides were fixed with MeOH and stained with Giemsa, counted under a light microscope (EVOS M5000, Thermo, USA) and IC50 values were determined by the infection index.
# as §1
# [3] = PAMPA intestinal model (GIT); type: in vitro ADME
# Method: Intestinal permeability of tested compounds was estimated applying the PAMPA model previously developed and validated. Briefly, stock solutions were prepared in dimethyl sulfoxide (DMSO) at the concentrations of 10 mM and then diluted with Tris buffer to give the final concentration donor solution at 300 µM and 5% DMSO. The assay procedure was initiated by filling each well of the microtiter plate (MultiScreen, catalogue no. MATRNPS50, Millipore Corporation, Bedford, MA, USA) with 300 μL of each donor drug solution. Carefully, and avoiding the pipette tip contact with the filter, the hydrophobic filter (0.45 μm) of each acceptor well of the 96-well microfilter plate (MultiScreen-IP, catalogue no. MAIPNTR10, Millipore Corporation, Bedford, MA, USA) was adsorbed with 6 μL of the artificial lipid solution which was composed of 2% of L-α-phosphatidylcholine from soybean dissolved, by sonication, in n-dodecane. Immediately after this application, 150 μL of Tris buffer containing 5% DMSO was added to the receiving well. The receiving well was mounted on the donor plate, keeping the underside of the membrane in contact with the donor solution. The assembled donor–acceptor plates were incubated under constant stirring (3 g) at 25 °C for approximately 16 h. Subsequently, the quantity of each compound presented at the receptor solution (150 μL) was determined by UV/VIS spectrophotometrically.
# [4] = PAMPA-BBB model; type: in vitro ADME
# Method: The methodology herein applied was similar to that described in the previous section, however with the purpose of assessing the permeability of the compounds through the blood brain barrier (BBB). Thus, stock solutions (10 mM) of each test compound were prepared in DMSO and diluted with phosphate buffered saline (PBS) at pH 7.4. The final concentration of donor solutions was 300 μM and DMSO of 5%. Artificial membrane lipid solutions were prepared daily by dissolving, in n-dodecane, the porcine brain lipid extracted as described[40] at the final concentration of 2% (m/v). PAMPA procedure was similar to that described in the previous section although, in PAMPA-BBB, the donor and acceptor solutions were prepared using phosphate buffer saline (PBS) at pH 7.4 and the Papp was obtained through the equation previously reported.
# [5] = test system: T. cruzi (Y strain) trypomastigotes; assay: Anti-trypomastigote assay (resazurin viability); type: cell-based, Trypanosoma cruzi; settings: for IC50: read-out: IC50 trypo
# Method: as §2
# Benznidazole was used as the standard drug. The optical density was determined in FilterMax F5 (Molecular Devices) at 570 nm[38].
# as §1
# [6] = Trypanosoma cruzi, Peritoneal macrophage, in Mus musculus, intracellular amastigotes in BALB/c peritoneal macrophages
# [7] = Trypanosoma cruzi, T. cruzi trypomastigotes, 24 h incubation, resazurin
# [8] = PAMPA intestinal model, 300 µM donor, Tris buffer, 25 °C, 16 h, read-out: Papp GIT
# [9] = PAMPA-BBB model, 300 µM donor, PBS pH 7.4, read-out: Papp BBB
"IC50 [2, 6]","Papp at 16 h, 300 µM ([3]; PAMPA)","Papp at 16 h, 300 µM ([4]; PAMPA, pH 7.4)","IC50 [5, 7]","fraction unbound at 16 h, 300 µM [3]",Molecule,CC50 at 48 h [1],"Papp at 16 h, 300 µM [3, 8]","Papp at 16 h, 300 µM [4, 9]",anti-T. cruzi activity (in words) ([5]; Table 1 assays),"IC50 ([2]; Trypanosoma cruzi, Peritoneal macrophage, in Mus musculus)","IC50 ([5]; Trypanosoma cruzi, 24 h)",IC50 ([2]; intracellular amastigotes in BALB/c peritoneal macrophages),"IC50 ([5]; T. cruzi trypomastigotes, 24 h incubation, resazurin)"
> 100 µM,0.42 ×10⁻⁶ cm/s,4.26 ×10⁻⁶ cm/s,28 ± 10.2 µM,–,"C/C=C/c1cc(OC)c2c(c1)[C@H](C)[C@@H](c1ccc(OC)c(OC)c1)O2 [1a, (2S,3 S)-2-(3,4-dimethoxyphenyl)-7-methoxy-3-methyl-5-[(E)-prop-1-enyl]-2,3-dihydrobenzo-furan]",> 200 µM,–,–,–,–,–,–,–
> 100 µM,1.02 ×10⁻⁶ cm/s,0.34 ×10⁻⁶ cm/s,17.9 ± 2.9 µM,–,"C/C=C/c1cc(OC)c2c(c1)[C@H](C)[C@@H](c1ccc(OC(C)=O)c(OC)c1)O2 [1b, [2-methoxy-4-[(2S,3 S)-7-methoxy-3-methyl-5-[(E)-prop-1-enyl]-2,3-dihydrobenzofuran-2-yl]phenyl] acetate]",67.2 ± 24.6 µM,–,–,–,–,–,–,–
> 100 µM,0.43 ×10⁻⁶ cm/s,0.24 ×10⁻⁶ cm/s,> 100 µM,–,"C=CCOc1ccc([C@H]2Oc3c(OC)cc(/C=C/C)cc3[C@@H]2C)cc1OC [1c, (2S,3 S)-2-(4-allyloxy-3-methoxy-phenyl)-7-methoxy-3-methyl-5-[(E)-prop-1-enyl]-2,3-dihydrobenzofuran]",> 200 µM,–,–,–,–,–,–,–
5.6 ± 0.3 µM,17.4 ×10⁻⁶ cm/s,4.7 ×10⁻⁶ cm/s,> 100 µM,< 0.1,"COc1cc(C=O)ccc1OC(C)=O [2b, (4-formyl-2-methoxy-phenyl) acetate]",> 200 µM,–,–,–,–,–,–,–
> 100 µM,1.6 ×10⁻⁶ cm/s,5.35 ×10⁻⁶ cm/s,> 100 µM,–,"C=CCOc1ccc(C=O)cc1OC [2c, 4-allyloxy-3-methoxy-benzaldehyde]",> 200 µM,–,–,–,–,–,–,–
> 100 µM,1.57 ×10⁻⁶ cm/s,1.25 ×10⁻⁶ cm/s,> 100 µM,–,"C=CCc1cc(C=O)cc(OC)c1O [2d, 3-allyl-4-hydroxy-5-methoxy-benzaldehyde]",> 200 µM,–,–,–,–,–,–,–
> 100 µM,–,–,> 100 µM,–,"COc1ccc(CO)cc1OC [3a, (3,4-dimethoxyphenyl)methanol]",> 200 µM,2.22 ×10⁻⁶ cm/s,2.18 ×10⁻⁶ cm/s,–,–,–,–,–
> 100 µM,1.9 ×10⁻⁶ cm/s,4.74 ×10⁻⁶ cm/s,> 100 µM,–,"C=CCOc1ccc(CO)cc1OC [3c, (4-allyloxy-3-methoxy-phenyl)methanol]",> 200 µM,–,–,–,–,–,–,–
> 100 µM,15 ×10⁻⁶ cm/s,1.32 ×10⁻⁶ cm/s,54.6 ± 10.2 µM,< 0.1,"C/C=C/c1ccc(OC(C)=O)c(OC)c1 [4b, [2-methoxy-4-[(E)-prop-1-enyl]phenyl] acetate]",> 200 µM,–,–,–,–,–,–,–
> 100 µM,0.13 ×10⁻⁶ cm/s,0.2 ×10⁻⁶ cm/s,> 100 µM,–,"C=CCOc1ccc(/C=C/C)cc1OC [4c, 1-allyloxy-2-methoxy-4-[(E)-prop-1-enyl]benzene]",> 200 µM,–,–,did not display activity,–,–,–,–
10.4 ± 0.9 µM,1.2 ×10⁻⁶ cm/s,0.74 ×10⁻⁶ cm/s,21.2 ± 3.7 µM,–,"C=CCc1cc(/C=C/C)cc(OC)c1O [4d, 2-allyl-6-methoxy-4-[(E)-prop-1-enyl]phenol]",> 200 µM,–,–,–,–,–,–,–
–,–,–,–,–,"C=CCc1ccc(OC)c(OC)c1 [5a, 4-allyl-1,2-dimethoxy-benzene]",> 200 µM,2.35 ×10⁻⁶ cm/s,1.56 ×10⁻⁶ cm/s,–,> 100 µM,> 100 µM,–,–
> 100 µM,2.81 ×10⁻⁶ cm/s,2.28 ×10⁻⁶ cm/s,> 100 µM,–,"C=CCc1ccc(OC(C)=O)c(OC)c1 [5b, (4-allyl-2-methoxy-phenyl) acetate]",> 200 µM,–,–,–,–,–,–,–
18.7 ± 2.6 µM,–,–,5.5 ± 0.9 µM,–,"O=C(Cn1ccnc1[N+](=O)[O-])NCc1ccccc1 [Bnz, benznidazole, reference compound]",> 200 µM,–,–,–,–,–,–,–
–,–,–,–,–,isoeugenol [compound 4],–,–,–,–,–,–,> 100 µM,50.7 ± 17.4 µM

# Reference: publication PMC7096397, “Improving the drug-likeness of inspiring natural products - evaluation of the antiparasitic activity against Trypanosoma cruzi through semi-synthetic and simplified analogues of licarin A” (Scientific Reports, 2020)
